Experimental data from US20100173332A1, “Method for the Fluorescent Detection of Nitroreductase Activity Using Nitro-Substituted Aromatic Compounds” (Auckland Uniservices Limited, priority 2006, published 2010).

Tests used:
Type in all cases: cell-based
[1] = target: T1, E. coli nitroreductase (nfsB) (Escherichia coli, UniProt P38489); assay: Entrapment of fluorescent products within nitroreductase expressing HCT116 cells; conditions: washed; for cellular retention of fluorescence in nitroreductase expressing but not parental HCT116 cells: 10 μM for 1.5 hr, 6 hours post-exposure
T1 construct: expressed in transfected cells; host or cells: MDA231 (MDA-231) human breast cancer cell line, clonal derivative MDA231 NTR
T1 sequence (P38489 whole entry): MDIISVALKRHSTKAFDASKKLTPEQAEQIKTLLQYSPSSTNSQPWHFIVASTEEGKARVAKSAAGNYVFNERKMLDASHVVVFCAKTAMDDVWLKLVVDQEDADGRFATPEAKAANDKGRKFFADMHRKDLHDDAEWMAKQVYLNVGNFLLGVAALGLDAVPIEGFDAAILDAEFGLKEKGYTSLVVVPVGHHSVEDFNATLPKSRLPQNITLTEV
Method: The human colorectal cancer cell line (HCT116^WT) and a clonal derivative (HCT116^NTR) engineered to express the reporter gene E. coli nitroreductase (nfsB) under the control of a constitutive promoter were seeded onto glass coverslips at an equal density (50:50). Cells were equilibrated to 37° C., 5% CO2, and compound 1 and 13 was added to a final concentration of 100 μM for 1 hr. Cells were washed free of compound after 1 hour and fluorescence was monitored as a function of time (FIG. 8).
In further screening (FIG. 9), the human colorectal cancer cell line (HCT116^WT) and a clonal derivative (HCT116^NTR) engineered to express the reporter gene E. coli nitroreductase (nfsB) under the control of a constitutive promoter were seeded separately into a 96-well glass plate. Cells were equilibrated to 37° C., 5% CO2, and compounds were added to a final concentration of 10 μM for 1.5 hr. Cells were washed free of compound and fluorescence was monitored 6 hours post-exposure. […] The image has been rendered monochromatic for the purposes of publication quality.

[2] = test system: Escherichia coli nfsB (NfsB) or human cytochrome P450 reductase (CYPOR); assay: Multiplexed reporter detection with compounds 11 and 13 in MDA-231 WT, NfsB and CYPOR cells (fluorescence microscopy); conditions: fluorescent microscope images, MDA-231 WT/NfsB/CYPOR
From the text: Compounds 11 and 13 (as representative nitro-substituted aromatic compounds of the present invention) were utilized to exemplify the ability to detect individual cell populations. […] When the data were collated it was evident that the fluorescent output of each cell population could be identified with minimal interference from the other reductases-generated fluorescent molecules. […] To establish the single cell specificity of compounds 11 and 13 for detection of activities in a mixed (co-cultured) cell population, cells were examined by fluorescent microscopy following concurrent exposure to compounds 11 and 13. MDA-231 wild-type cells or cells expressing Escherichia coli nfsB and human cytochrome P450 reductase were mixed 1:1:1, seeded onto glass coverslips (15,000 cells/well in 0.1 mL αMEM+10% FCS+P/S) and allowed to attach overnight. Compound 11 and 13 were diluted into αMEM (from DMSO stock solutions) and 0.1 mL was added to achieve a final concentration of 10 μM and 100 μM respectively. Samples were incubated at 37° C. for 45 minutes, washed three times in PBS and images were acquired on a Nikon TE-2000 inverted fluorescence microscope. […] This illustrates that multiple independent outputs can be recorded from a single sample providing appropriate excitation and emission wavelengths are utilized. […]

[3] = target: T2, human cytochrome P450 reductase (CYPOR) (Homo sapiens, UniProt P16435); assay: Multiplexed reporter detection with compounds 4 and 16 in MDA-231 cells expressing CYPOR
T2 construct: expressed in transfected cells; host or cells: MDA231 (MDA-231) human breast cancer cell line, clonal derivative MDA231 P450R
T2 sequence (P16435 1-677): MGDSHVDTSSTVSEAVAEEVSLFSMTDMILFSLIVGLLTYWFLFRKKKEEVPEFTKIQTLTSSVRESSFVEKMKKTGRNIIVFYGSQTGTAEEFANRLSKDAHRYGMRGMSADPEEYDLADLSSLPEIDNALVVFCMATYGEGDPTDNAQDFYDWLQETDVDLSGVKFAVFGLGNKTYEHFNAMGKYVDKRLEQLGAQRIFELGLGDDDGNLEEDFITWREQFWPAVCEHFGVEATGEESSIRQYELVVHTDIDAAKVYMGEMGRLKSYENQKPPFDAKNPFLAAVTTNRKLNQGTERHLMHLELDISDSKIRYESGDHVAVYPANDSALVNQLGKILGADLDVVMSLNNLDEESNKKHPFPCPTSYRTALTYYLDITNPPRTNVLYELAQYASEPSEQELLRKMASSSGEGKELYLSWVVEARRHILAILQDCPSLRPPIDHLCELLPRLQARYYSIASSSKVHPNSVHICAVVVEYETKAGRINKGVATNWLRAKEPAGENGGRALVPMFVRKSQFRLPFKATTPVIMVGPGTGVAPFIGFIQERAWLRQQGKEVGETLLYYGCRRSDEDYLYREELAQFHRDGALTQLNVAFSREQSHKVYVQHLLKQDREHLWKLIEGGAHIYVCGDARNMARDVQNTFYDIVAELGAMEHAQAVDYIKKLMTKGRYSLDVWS
Method: (§1) Compounds 4 and 16 (as representative nitro-substituted aromatic compounds of the present invention) were utilized to exemplify the ability to detect individual cell populations. […] 30,000 cells were seeded into a plastic 96-well plate in a volume of 0.1 mL. After 2 h attachment samples were incubated with either 200 μM 16 or 100 μM 4 by dilution of DMSO stock solutions into culture medium and addition of 0.1 mL directly into wells. Plates were incubated for 4 h before being read on a fluorescent platereader at Ex/Em 355/460 and 485/535. Values represent the fluorescence in the presence of cells—blank (fluorescence in the absence of cells). When the data were collated it was evident that the fluorescent output of each cell population could be identified with minimal interference from the other reductases-generated fluorescent molecules. […] To establish the single cell specificity of compounds 4 and 16 for detection of activities in a mixed (co-cultured) cell population, cells were examined by fluorescent microscopy following concurrent exposure to compounds 4 and 16. […] Samples were incubated at 37° C. for 45 minutes, washed three times in PBS and images were acquired on a Nikon TE-2000 inverted fluorescence microscope. […]

[4] = target: T3, Escherichia coli nfsB (NfsB) (Escherichia coli, UniProt P38489); assay: Multiplexed reporter detection with compounds 4 and 16 in MDA-231 cells expressing nfsB; conditions: 100 μM, 4 h, platereader, MDA-231 WT/NfsB/CYPOR
T3 construct: expressed in transfected cells; host or cells: MDA231 (MDA-231) human breast cancer cell line, clonal derivative MDA231 NTR
T3 sequence (P38489 whole entry): as the sequence (P38489 whole entry) above
Method: as §1

COC(=O)Cn1ccc(=O)c2cc([N+](=O)[O-])ccc21 [Compound 13, Methyl (6-nitro-4-oxo-1(4H)-quinolinyl)acetate]
cellular retention of fluorescence in nitroreductase expressing but not parental HCT116 cells [1]: possessing cellular retention properties | retention of fluorescence in cells after wash ([1]; HCT116 WT:HCT116 NTR 50:50 co-culture, 100 μM for 1 hr, by 4 hours): still retained | fluorescent output at Ex/Em 355/460 detecting nfsB and CYPOR enzyme activities [2]: gave fluorescent output

CN(C)CCCNc1ncnc2cccc([N+](=O)[O-])c12 [Compound 16, N^1,N^1-dimethyl-N^3-(5-nitro-4-quinazolinyl)-1,3-propanediamine]
fluorescent output at Ex/Em 355/460 detecting human CYPOR activity ([3]; 200 μM, 4 h, platereader, MDA-231 WT/NfsB/CYPOR): gave fluorescent output | fluorescent emission colour on co-registration image (DAPI filter set) ([3]; nfsB and CYPOR cells mixed 1:1, 300 μM, 45 minutes, microscopy): blue

CN(C)CCCCN1C(=O)c2cccc3cc([N+](=O)[O-])cc(c23)C1=O [Compound 11, 2-[4-(Dimethylamino)butyl]-5-nitro-1H-benzo[de]isoquinoline-1,3(2H)-dione]
fluorescent output at Ex/Em 485/535 detecting nfsB and CYPOR enzyme activities [2]: gave fluorescent output

CN(C)CCNC(=O)c1cc([N+](=O)[O-])cc2c(=O)c3ccccc3[nH]c12 [Compound 4, N-[2-(Dimethylamino)ethyl]-2-nitro-9-oxo-9,10-dihydro-4-acridinecarboxamide]
fluorescent output at Ex/Em 485/535 detecting Escherichia coli nfsB activity [4]: gave fluorescent output | cellular retention of fluorescence in nitroreductase expressing but not parental HCT116 cells [1]: possessing cellular retention properties
